Results published in patent US8653041B2, “Antibacterial aminoglycoside analogs” (Achaogen, Inc., priority 2010, dated 2014).
Values after ≈ are worked out from the molar mass of the structure shown. Like-named read-outs stand apart in the source and are kept apart here.

Assays:
[1] = 14-day rat toxicology (nephrotoxicity), once-daily subcutaneous injection
Description: The study design utilized once-daily subcutaneous injection administration to the rat for 14 days and assessment of reversibility of any changes following a 28-day recovery period.
The dose volume administered to each animal was 1 mL/kg.

Pseudomonas aeruginosa = assay: MIC, CLSI broth microdilution, Pseudomonas aeruginosa panel; assay type: cell-based; conditions: Pseudomonas aeruginosa, read-out: MIC
Description: (§1) Minimum inhibitory concentrations (MIC) were determined by reference Clinical and Laboratory Standards Institute (CLSI) broth microdilution methods per M7-A7 [2006]. Quality control ranges utilizing E. coli ATCC 25922, P. aeruginosa ATCC 27853 and S. aureus ATCC 29213, and interpretive criteria for comparator agents were as published in CLSI M100-S17 [2007]. Briefly, serial two-fold dilutions of the test compounds were prepared at 2× concentration in Mueller Hinton Broth. The compound dilutions were mixed in 96-well assay plates in a 1:1 ratio with bacterial inoculum. The inoculum was prepared by suspension of a colony from an agar plate that was prepared the previous day. Bacteria were suspended in sterile saline and added to each assay plate to obtain a final concentration of 5×10^5 CFU/mL. The plates were incubated at 35 C for 20 hours in ambient air.
The MIC panel presented in Table 1 contains 27 isolates of Pseudomonas aeruginosa: strains 1-22 are clinical isolates from around the world collected between 2004-2007 which contain representative resistance mechanisms commonly found in Pseudomonas, such as the AAC(6′)-I, AAC(6′)-II, APH(3′)-IIb, ANT(2″)-I, and perm/efflux; strains 23-27 are susceptible.

Acinetobacter baumannii = assay: MIC, CLSI broth microdilution, Acinetobacter baumannii panel; assay type: cell-based; conditions: Acinetobacter baumannii, read-out: MIC
Description: as §1
The MIC panel presented in Table 2 contains 29 isolates of Acinetobacter baumannii: strains 1-24 are clinical isolates from around the world collected between 2004-2007 which contain representative resistance mechanisms commonly found in Acinetobacter baumannii, such as AAC(3)-I and II, AAC(6′)-I, ANT(2″)-I, APH(3′)-VI, and perm/efflux; strains 25-29 are susceptible.

Compound: NC[C@@H]1O[C@H](O[C@H]2[C@@H](O)[C@H](O[C@@H]3[C@@H](O)[C@H](NC(=O)[C@@H](O)CN)C[C@H](N)[C@H]3O[C@H]3O[C@H](CNCCO)[C@@H](O)C[C@H]3N)O[C@@H]2CO)[C@H](N)[C@@H](O)[C@@H]1O [Compound 20]
- mortality ([1]; 10, 30 or 100 mg/kg/day subcutaneous, once daily, 14 days, Sprague-Dawley rat): did not result in mortality at any dose
- macroscopic or microscopic changes to the kidneys ([1]; rat, in vivo): nor any significant macroscopic or microscopic changes to the kidneys
- MIC (Pseudomonas aeruginosa; P. aeruginosa clinical strain 1 (resistant clinical isolate)): ≤ 1 µg/mL
- MIC (Pseudomonas aeruginosa; P. aeruginosa clinical strain 2 (resistant clinical isolate)): ≤ 1 µg/mL
- MIC (Pseudomonas aeruginosa; P. aeruginosa clinical strain 3 (resistant clinical isolate)): 1 to 8 µg/mL (≈ 1.37 to 11 µM)
- MIC (Pseudomonas aeruginosa; P. aeruginosa clinical strain 4 (resistant clinical isolate)): 1 to 8 µg/mL (≈ 1.37 to 11 µM)
- MIC (Pseudomonas aeruginosa; P. aeruginosa clinical strain 5 (resistant clinical isolate)): 1 to 8 µg/mL (≈ 1.37 to 11 µM)
- MIC (Pseudomonas aeruginosa; P. aeruginosa clinical strain 6 (resistant clinical isolate)): 1 to 8 µg/mL (≈ 1.37 to 11 µM)
- MIC (Pseudomonas aeruginosa; P. aeruginosa clinical strain 7 (resistant clinical isolate)): ≤ 1 µg/mL
- MIC (Pseudomonas aeruginosa; P. aeruginosa clinical strain 8 (resistant clinical isolate)): 1 to 8 µg/mL (≈ 1.37 to 11 µM)
- MIC (Pseudomonas aeruginosa; P. aeruginosa clinical strain 9 (resistant clinical isolate)): ≤ 1 µg/mL
- MIC (Pseudomonas aeruginosa; P. aeruginosa clinical strain 10 (resistant clinical isolate)): 1 to 8 µg/mL (≈ 1.37 to 11 µM)
- MIC (Pseudomonas aeruginosa; P. aeruginosa clinical strain 11 (resistant clinical isolate)): ≤ 1 µg/mL
- MIC (Pseudomonas aeruginosa; P. aeruginosa clinical strain 12 (resistant clinical isolate)): ≤ 1 µg/mL
- MIC (Pseudomonas aeruginosa; P. aeruginosa clinical strain 13 (resistant clinical isolate)): 8 to 16 µg/mL (≈ 11 to 21.9 µM)
- MIC (Pseudomonas aeruginosa; P. aeruginosa clinical strain 14 (resistant clinical isolate)): ≤ 1 µg/mL
- MIC (Pseudomonas aeruginosa; P. aeruginosa clinical strain 15 (resistant clinical isolate)): 1 to 8 µg/mL (≈ 1.37 to 11 µM)
- MIC (Pseudomonas aeruginosa; P. aeruginosa clinical strain 16 (resistant clinical isolate)): ≤ 1 µg/mL
- MIC (Pseudomonas aeruginosa; P. aeruginosa clinical strain 17 (resistant clinical isolate)): 1 to 8 µg/mL (≈ 1.37 to 11 µM)
- MIC (Pseudomonas aeruginosa; P. aeruginosa clinical strain 18 (resistant clinical isolate)): 1 to 8 µg/mL (≈ 1.37 to 11 µM)
- MIC (Pseudomonas aeruginosa; P. aeruginosa clinical strain 19 (resistant clinical isolate)): 16 to 32 µg/mL (≈ 21.9 to 43.8 µM)
- MIC (Pseudomonas aeruginosa; P. aeruginosa clinical strain 20 (resistant clinical isolate)): 16 to 32 µg/mL (≈ 21.9 to 43.8 µM)
- MIC (Pseudomonas aeruginosa; P. aeruginosa clinical strain 21 (resistant clinical isolate)): 1 to 8 µg/mL (≈ 1.37 to 11 µM)
- MIC (Pseudomonas aeruginosa; P. aeruginosa clinical strain 22 (resistant clinical isolate)): 1 to 8 µg/mL (≈ 1.37 to 11 µM)
- MIC (Pseudomonas aeruginosa; P. aeruginosa strain 23 (susceptible)): ≤ 1 µg/mL
- MIC (Pseudomonas aeruginosa; P. aeruginosa strain 24 (susceptible)): ≤ 1 µg/mL
- MIC (Pseudomonas aeruginosa; P. aeruginosa strain 25 (susceptible)): ≤ 1 µg/mL
- MIC (Pseudomonas aeruginosa; P. aeruginosa strain 26 (susceptible)): ≤ 1 µg/mL
- MIC (Pseudomonas aeruginosa; P. aeruginosa strain 27 (susceptible)): ≤ 1 µg/mL
- MIC (Acinetobacter baumannii; A. baumannii clinical strain 1 (resistant clinical isolate)): 1 to 8 µg/mL (≈ 1.37 to 11 µM)
- MIC (Acinetobacter baumannii; A. baumannii clinical strain 2 (resistant clinical isolate)): 1 to 8 µg/mL (≈ 1.37 to 11 µM)
- MIC (Acinetobacter baumannii; A. baumannii clinical strain 3 (resistant clinical isolate)): ≤ 1 µg/mL
- MIC (Acinetobacter baumannii; A. baumannii clinical strain 4 (resistant clinical isolate)): 16 to 32 µg/mL (≈ 21.9 to 43.8 µM)
- MIC (Acinetobacter baumannii; A. baumannii clinical strain 5 (resistant clinical isolate)): ≤ 1 µg/mL
- MIC (Acinetobacter baumannii; A. baumannii clinical strain 6 (resistant clinical isolate)): 1 to 8 µg/mL (≈ 1.37 to 11 µM)
- MIC (Acinetobacter baumannii; A. baumannii clinical strain 7 (resistant clinical isolate)): ≤ 1 µg/mL
- MIC (Acinetobacter baumannii; A. baumannii clinical strain 8 (resistant clinical isolate)): ≤ 1 µg/mL
- MIC (Acinetobacter baumannii; A. baumannii clinical strain 9 (resistant clinical isolate)): ≤ 1 µg/mL
- MIC (Acinetobacter baumannii; A. baumannii clinical strain 10 (resistant clinical isolate)): 1 to 8 µg/mL (≈ 1.37 to 11 µM)
- MIC (Acinetobacter baumannii; A. baumannii clinical strain 11 (resistant clinical isolate)): ≤ 1 µg/mL
- MIC (Acinetobacter baumannii; A. baumannii clinical strain 12 (resistant clinical isolate)): ≤ 1 µg/mL
- MIC (Acinetobacter baumannii; A. baumannii clinical strain 13 (resistant clinical isolate)): ≤ 1 µg/mL
- MIC (Acinetobacter baumannii; A. baumannii clinical strain 14 (resistant clinical isolate)): ≤ 1 µg/mL
- MIC (Acinetobacter baumannii; A. baumannii clinical strain 15 (resistant clinical isolate)): ≤ 1 µg/mL
- MIC (Acinetobacter baumannii; A. baumannii clinical strain 16 (resistant clinical isolate)): 1 to 8 µg/mL (≈ 1.37 to 11 µM)
- MIC (Acinetobacter baumannii; A. baumannii clinical strain 17 (resistant clinical isolate)): 1 to 8 µg/mL (≈ 1.37 to 11 µM)
- MIC (Acinetobacter baumannii; A. baumannii clinical strain 18 (resistant clinical isolate)): 1 to 8 µg/mL (≈ 1.37 to 11 µM)
- MIC (Acinetobacter baumannii; A. baumannii clinical strain 19 (resistant clinical isolate)): 1 to 8 µg/mL (≈ 1.37 to 11 µM)
- MIC (Acinetobacter baumannii; A. baumannii clinical strain 20 (resistant clinical isolate)): 1 to 8 µg/mL (≈ 1.37 to 11 µM)
- MIC (Acinetobacter baumannii; A. baumannii clinical strain 21 (resistant clinical isolate)): ≤ 1 µg/mL
- MIC (Acinetobacter baumannii; A. baumannii clinical strain 22 (resistant clinical isolate)): 8 to 16 µg/mL (≈ 11 to 21.9 µM)
- MIC (Acinetobacter baumannii; A. baumannii clinical strain 23 (resistant clinical isolate)): ≤ 1 µg/mL
- MIC (Acinetobacter baumannii; A. baumannii clinical strain 24 (resistant clinical isolate)): 1 to 8 µg/mL (≈ 1.37 to 11 µM)
- MIC (Acinetobacter baumannii; A. baumannii strain 25 (susceptible)): ≤ 1 µg/mL
- MIC (Acinetobacter baumannii; A. baumannii strain 26 (susceptible)): ≤ 1 µg/mL
- MIC (Acinetobacter baumannii; A. baumannii strain 27 (susceptible)): ≤ 1 µg/mL
- MIC (Acinetobacter baumannii; A. baumannii strain 28 (susceptible)): ≤ 1 µg/mL
- MIC (Acinetobacter baumannii; A. baumannii strain 29 (susceptible)): ≤ 1 µg/mL
